Results as given in patent US20240342111A1, “ISOMER-SPECIFIC NEUROPROTECTIVE EFFECT OF NATURAL RESERVATROL” (priority 2021, published 2024).

Assays:
Ac-K56-H3 = conditions: diabetes patients, 500 mg/day; cited from earlier work
[1] = test system: Rat cortical neurons transfected with PARP1 siRNA; test: siRNA knockdown of PARP1, trans-RSV neurotoxicity, MTT assay; type: cell-based; conditions: trans-RSV 50 μM, 72 hours
Experimental: (§1) Cell viability was assessed and quantified using MTT assay.
Primary cortical neuron cultures were obtained from E18 Sprague Dawley rats' cortices, which were dissected in Hibernate E (BrainBits) and dissociated using the Neural Tissue Dissociation kit (Miltenyi Biotec). For this, minced cortices were incubated in a pre-warmed enzyme mix at 37° C. for 15 min; tissues were then triturated and strained using a 40 μm cell strainer. After washing and centrifugation, neurons were seeded in 50 μg/ml poly-D-Lysine (Sigma Aldrich) coated tissue culture plates. NBActive-1 medium (BrainBits) supplemented with 100 U/ml of Penicillin-Streptomycin (Life Technologies), 2 mM L-Glutamine (Life Technologies), and 1 X N21 supplement (R&D Systems) was used as culture medium. Control (AM4635), TyrRS (s443), PARP1 (s130207) siRNA for transfection were obtained from Invitrogen. […]
Rat cortical neurons (DIV 10-11) were exposed to different treatments after seeding 20,000 cells/well in 96-well plates. Cell viability was then assessed at 48 hours after the initial exposure to NMDA. […] The percentage of MTT reduced as measured by the difference between the absorbances at 570 nm read in a spectrophotometer (Spectramax 190R Molecular Devices, UK). The percentage of reduction of MTT was calculated comparing the difference of the absorbance at 570 of each sample. […]

OGG1 = test: Immunoblot for OGG1 protein; type: cell-based, rat; conditions: 5-50 μM, 4 hours
Rat cortical neurons [2] = test: Oxidative stress (H2O2)-induced toxicity, viability; type: cell-based; conditions: 400 μM H2O2 24 hours, pre-treatment 16 hours
Rat cortical neurons [3] = test: trans-RSV in combination with cis-RSV, viability by MTT assay; type: cell-based; conditions: cis-RSV 10-50 μM in combination with trans-RSV, 48 hours
Experimental: as §1
Rat cortical neurons (DIV 10-11) were exposed to different treatments after seeding 20,000 cells/well in 96-well plates. Cell viability was then assessed at 48 hours after the initial exposure to NMDA. 3-[4,5-dimethylthiazole-2-yl]-2,5-diphenyltetrazolium bromide (MTT) assays were used to assess change in cell viability. Cultured rat cortical neurons were incubated with MTT (0.5 mg/mL). In the MTT assay, after 2 h incubation, the insoluble purple product formazan resulting from the reduction of MTT by NAD(P)H-dependent oxidoreductases present in cells with viable mitochondria was solubilized in dimethyl sulfoxide at room temperature, under agitation, and protected from light. The percentage of MTT reduced as measured by the difference between the absorbances at 570 nm read in a spectrophotometer (Spectramax 190R Molecular Devices, UK). The percentage of reduction of MTT was calculated comparing the difference of the absorbance at 570 of each sample. Results are presented as percentage of control (wells incubated with the vehicle).

Rat cortical neurons [4] = test: DNA damage (etoposide)-induced neurotoxicity, MTT assay; type: cell-based; conditions: 5 μM etoposide 24 hours, pre-treatment 16 hours

| SMILES | levels of Ac-K56-H3 in PBMC (Ac-K56-H3) | effect of PARP1 siRNA knockdown on neurotoxicity [1] | OGG1 protein levels (OGG1) | protection from toxicity induced by oxidative stress (Rat cortical neurons [2]) | trans-RSV-mediated neurotoxicity (Rat cortical neurons [3]) | protection from DNA damage-induced neurotoxicity (Rat cortical neurons [4]) |
| --- | --- | --- | --- | --- | --- | --- |
| Oc1ccc(/C=C/c2cc(O)cc(O)c2)cc1 [trans-RSV, trans-resveratrol] | decreased levels of Ac-K56-H3 | protected against trans-RSV-mediated neurotoxicity | – | – | – | – |
| Oc1ccc(/C=C\c2cc(O)cc(O)c2)cc1 [cis-RSV, cis-resveratrol] | – | – | downregulated both the protein levels of OGG1 and the levels of 8-oxo-dG | protects neurons from toxicity induced by oxidative stress | rescued trans-RSV-mediated neurotoxicity | protects neurons from DNA damage-induced neurotoxicity |
